Experimental data taken from patent publication US20240043400A1, “Octahydroisoquinolinyl Derivatives” (UCB Biopharma SRL, priority 2020, published 2024).

What was measured:
dopamine D1 receptor = biological target: T1, dopamine D1 receptor (Homo sapiens, UniProt P21728); assay: cAMP HTRF potentiation assay (in the presence of dopamine); format: cell-based; details: potentiation of cAMP with [EC20] of dopamine (1.1 nM); LMtk (Ltk−) mouse fibroblast cells expressing the dopamine D1 receptor
T1 construct: host or cells: LMtk (Ltk-) mouse fibroblast cells, kept under Geneticin
Procedure: The potentiation assay measures the ability of compounds to increase the levels of cAMP produced by a low-threshold concentration of dopamine. The concentration of dopamine used ([EC20]) is designed to produce 20% stimulation compared to the maximal response (100%) seen with increasing the concentration of dopamine. To measure this potentiation we incubate increasing concentrations of the compound with the [EC20] of dopamine and measure the potentiation as increases in cAMP production. The pEC50 of a compound is the −log 10 of the concentration of the compound which produces 50% of the potentiation of the cAMP levels and the Erel is the relative efficacy, defined as the maximal % potentiation produced by the compound compared to the maximal response produced by increasing concentrations of dopamine (Erel of 1=dopamine maximum response).
Cells were cultured at 37° C. in a humidified atmosphere of 5% CO2. Cells were grown in DMEM-F12+GlutaMAX™-1 medium (GIBCO®, Invitrogen, Merelbeke, Belgium) containing 10% fetal bovine serum (BioWhittaker®, Lonza, Verviers, Belgium), 400 μg/mL Geneticin (GIBCO®), 100 IU/mL Penicillin and 100 IU/mL Streptomycin (Pen-Strep solution, BioWhittaker®).
The measurement of changes in intracellular cyclic adenosinemonophopshpate (cAMP) was determined using the HTRF cAMP dynamic assay kit from CisBio (Codolet, France). Using homogenous time-resolved fluoresence technology, the assay is based on competition between native cAMP produced by cells and cAMP labelled with the dye d2. The tracer binding is determined by an anti-cAMP antibody labeled with cryptate. The effects of the compound alone (agonism) was determined by performing the assay in the absence of dopamine, whilst the effect of the compound as a positive allosteric modulator (PAM) was determined in the presence of an EC20 concentration of dopamine. Cells (20,000 per well) are incubated in 384 plates for 1 h at rt in a final volume of 20 μLHBSS (Lonza, with calcium, magnesium and HEPES buffer 20 mM, pH 7.4) containing: isobutyl methylxanthine (Sigma, 0.1 mM final), varying concentrations of test compound (typically 10^−9.5 M to 10^−4.5 M) in the presence and absence of dopamine (1.1 nM final). The reaction is then terminated and the cells lysed by adding the d2 detection reagent in lysis buffer (10 μL) and the cryptate reagent in lysis buffer (10 μL) according to manufacturer's instructions. This is then incubated for a further 60 min at rt and changes in HTRF fluorescent emission ratio determined according to manufacturer's instructions using an Envision plate reader (Perkin Elmer, Zaventem, Belgium) with laser excitation. All incubations were performed in duplicate and results were compared to a concentration-effect curve to dopamine. (10^−11 M to 10^−6 M).
Data was analyzed using Excel and PRISM (GraphPad Software) to obtain pEC50 and Erel using the 4-parameter logistic equation (DeLean et al, 1978) where Erel is the fitted maximal response of the test compound minus basal expressed as a percentage relative to that obtained with dopamine which was defined as 100%.

[1] = biological target: T2, human GABAA receptor α1β2 and γ2 subunits (Homo sapiens, UniProt P14867+P18507+P47870); assay: Automated patch clamp studies on the GABAA receptor cells; format: cell-based; details: 15 μM GABA, Table B; for % GABAA inhibition: 10 μM compound, CHO-K1 cells; for inhibition at 10 µM: CHO-K1, 10 μM compound
T2 construct: expressed in transfected cells
Procedure: CHO-K1 cells stably expressing human GABAA receptor α1β2 and γ2 subunits were used. The cells were harvested using trypsin and maintained in serum-free medium at room temperature. The cells were washed and re-suspended in extracellular solution before testing.
Experiments on human GABAA (α1β2γ2) channels were conducted using an automated patch clamp assay (lonFlux™ HT). The external solution for recording GABAA currents was composed of sodium chloride 137 mM, potassium chloride 4 mM, calcium chloride 1.8 mM, magnesium chloride 1 mM, HEPES 10 mM, and glucose 10 mM. Both external and internal solutions were titrated with NaOH or KOH to obtain a pH of 7.35 and 7.3, respectively. The internal pipette solution contained potassium fluoride 70 mM, potassium chloride 60 mM, sodium chloride 70 mM, HEPES 5 mM, EGTA 5 mM, and Magnesium ATP 4 mM. The final concentration of vehicle used to dilute compounds was 0.33% DMSO in each well. Bicuculline (0.032 to 100 μM) was used as positive control inhibitor. GABA (15 μM) was used as agonist. All recordings were obtained from a holding potential of −60 mV.
The compound addition sequence was the following: one addition of the EC80 concentration of GABA was added to establish baseline response. Each concentration of compound was applied for 30 seconds followed by the addition of 15 μM GABA in the presence of the compound for 2 seconds. The process was repeated with the next ascending concentration of compound. Peak inward currents in response to the GABA additions in the presence of a single concentration of compound were measured. All compound data have been normalized to the baseline peak current induced by addition of 15 μM GABA for 2 seconds.

CYP3A4 = biological target: T3, CYP3A4 (Homo sapiens, UniProt P08684); assay: In vitro assessment of CYP3A4 inhibition potential using cryopreserved human microsomes; format: in vitro ADME; details: 20 μM compound, human microsomes 0.25 mg/ml, Table C; for inhibition at 15 min, 20 μM: human, cryopreserved human microsomes (pooled donors), probe midazolam 2.5 μM (1-hydroxymidazolam formation); for % CYP3A4 inhibition: midazolam 2.5 μM
T3 construct: cryopreserved human microsomes (pooled donors); from tissue
Procedure: The objective of the human microsome assay is to characterize the inhibition potential of Compound of formula (I) by measuring the CYP3A4 activities after its co-incubation with midazolam, a specific CYP3A4 substrate.
To this aim, cryopreserved human microsomes (pooled donors) are divided on a 48 well collagen coated plate so that the final concentration is 0.25 mg/ml. The UCB compound is then added in the wells at 20 μM concentration in duplicate. After 30 min incubation, midazolam is added at 2.5 μM concentration. After 15 min, an aliquot is removed and placed into an equal volume of methanol containing internal standard. The samples are centrifuged at 2500 rpm at 4° C. for 20 min. An aliquot of supernatant is diluted with deionised water and levels of 1-hydroxymidazolam is quantified using generic LC MS/MS methods.
The concentrations are compared to those obtained after midazolam incubation at the same concentration but without UCB compound pre-incubation. The results are expressed as % of inhibition.

T3 sequence (P08684 whole entry): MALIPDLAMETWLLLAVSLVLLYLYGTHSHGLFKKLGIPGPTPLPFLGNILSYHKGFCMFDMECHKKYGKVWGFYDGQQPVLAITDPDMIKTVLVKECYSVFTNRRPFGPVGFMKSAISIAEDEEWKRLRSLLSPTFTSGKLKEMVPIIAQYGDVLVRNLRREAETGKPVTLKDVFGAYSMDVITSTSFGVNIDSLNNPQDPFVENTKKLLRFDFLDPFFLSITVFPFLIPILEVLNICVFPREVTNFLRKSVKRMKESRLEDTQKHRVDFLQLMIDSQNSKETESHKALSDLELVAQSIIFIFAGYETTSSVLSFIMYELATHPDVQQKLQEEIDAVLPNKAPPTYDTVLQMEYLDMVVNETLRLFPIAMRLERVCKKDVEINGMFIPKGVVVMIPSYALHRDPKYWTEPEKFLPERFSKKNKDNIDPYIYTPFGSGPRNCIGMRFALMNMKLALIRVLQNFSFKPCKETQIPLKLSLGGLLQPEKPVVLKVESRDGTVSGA
T2 sequence (P14867 28-456): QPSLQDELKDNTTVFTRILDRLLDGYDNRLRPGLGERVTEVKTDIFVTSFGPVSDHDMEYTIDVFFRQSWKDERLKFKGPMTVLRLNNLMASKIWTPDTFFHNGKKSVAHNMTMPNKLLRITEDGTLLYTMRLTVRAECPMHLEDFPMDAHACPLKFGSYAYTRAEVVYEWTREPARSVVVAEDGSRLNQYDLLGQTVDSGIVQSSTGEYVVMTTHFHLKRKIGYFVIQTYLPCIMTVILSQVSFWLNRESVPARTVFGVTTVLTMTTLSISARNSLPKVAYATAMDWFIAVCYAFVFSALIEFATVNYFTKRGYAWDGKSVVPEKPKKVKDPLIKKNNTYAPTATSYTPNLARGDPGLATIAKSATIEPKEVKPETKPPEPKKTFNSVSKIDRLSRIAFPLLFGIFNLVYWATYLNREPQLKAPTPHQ
T2 sequence (P47870 25-512 limits assumed): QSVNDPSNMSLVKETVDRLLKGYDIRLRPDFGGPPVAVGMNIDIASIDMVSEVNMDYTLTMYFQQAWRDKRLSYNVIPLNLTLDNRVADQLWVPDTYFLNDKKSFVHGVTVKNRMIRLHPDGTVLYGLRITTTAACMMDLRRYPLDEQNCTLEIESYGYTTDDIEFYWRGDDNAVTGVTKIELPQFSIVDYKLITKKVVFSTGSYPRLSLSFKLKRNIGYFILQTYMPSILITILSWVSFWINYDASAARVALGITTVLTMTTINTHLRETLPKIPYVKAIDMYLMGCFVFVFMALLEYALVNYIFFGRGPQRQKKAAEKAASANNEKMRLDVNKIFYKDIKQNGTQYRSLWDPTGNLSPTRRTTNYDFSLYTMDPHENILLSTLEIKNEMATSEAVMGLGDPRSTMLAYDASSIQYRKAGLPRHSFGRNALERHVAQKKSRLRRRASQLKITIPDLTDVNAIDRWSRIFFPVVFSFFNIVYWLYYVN
T2 sequence (P18507 40-475): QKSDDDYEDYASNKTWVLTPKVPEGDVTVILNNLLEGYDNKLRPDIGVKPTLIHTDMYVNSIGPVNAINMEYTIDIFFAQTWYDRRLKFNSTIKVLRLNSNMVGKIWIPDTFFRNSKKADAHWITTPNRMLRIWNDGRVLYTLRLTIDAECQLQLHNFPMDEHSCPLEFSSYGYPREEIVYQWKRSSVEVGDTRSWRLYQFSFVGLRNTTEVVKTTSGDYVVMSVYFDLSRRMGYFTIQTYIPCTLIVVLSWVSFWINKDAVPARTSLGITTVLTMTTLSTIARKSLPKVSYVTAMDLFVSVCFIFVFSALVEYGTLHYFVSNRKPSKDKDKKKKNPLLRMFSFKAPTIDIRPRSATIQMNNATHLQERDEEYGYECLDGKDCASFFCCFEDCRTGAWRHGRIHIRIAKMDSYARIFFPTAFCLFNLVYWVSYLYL
T1 sequence (P21728 whole entry): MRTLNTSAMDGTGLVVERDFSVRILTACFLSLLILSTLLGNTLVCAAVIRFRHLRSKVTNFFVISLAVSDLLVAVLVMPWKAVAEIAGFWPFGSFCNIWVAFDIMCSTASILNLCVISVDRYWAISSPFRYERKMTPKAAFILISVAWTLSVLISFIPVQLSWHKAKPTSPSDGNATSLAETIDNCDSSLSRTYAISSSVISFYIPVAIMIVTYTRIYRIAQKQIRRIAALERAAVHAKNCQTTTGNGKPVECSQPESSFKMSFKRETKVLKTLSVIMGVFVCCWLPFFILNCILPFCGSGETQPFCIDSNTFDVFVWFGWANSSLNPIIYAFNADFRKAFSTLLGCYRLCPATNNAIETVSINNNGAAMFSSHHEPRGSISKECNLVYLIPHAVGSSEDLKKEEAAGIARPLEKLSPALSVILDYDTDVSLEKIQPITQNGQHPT

EC50 (dopamine D1 receptor) [nM] | % GABAA inhibition [1] [%] | inhibition at 15 min, 20 μM (CYP3A4) [%] | inhibition at 10 µM [1] [%] | SMILES | % CYP3A4 inhibition (CYP3A4)
79.4 | 2.0 | 20 to 40 | – | C[C@H]1[C@H]2CCCC([C@@H](O)C(F)(F)F)[C@@H]2CCN1C(=O)Cc1c(Cl)ccc2c1c(Cl)nn2C (single isomer, unassigned) [Example 8-A] | –
126 | −1.2 | – | – | C[C@H]1[C@H]2CCCC([C@@H](O)C(F)(F)F)[C@@H]2CCN1C(=O)Cc1c(Cl)ccc2c1c(Cl)nn2C (single isomer, unassigned) [Example 8-B] | +++ (A percentage of inhibition greater than about 40% and lower than or equal to about 60% is indicated by +++.)
398 | – | 40 to 60 | 4.9 | COc1ccc(C#N)c(CC(=O)N2CC[C@H]3[C@H]([C@@H](O)C(F)(F)F)CCC[C@@H]3[C@@H]2C)c1Cl [Example 1-B, 2-[2-[(1S,4aR,5R,8aS)-1-methyl-5-[(1R)-2,2,2-trifluoro-1-hydroxy-ethyl]-3,4,4a,5,6,7,8,8a-octahydro-1H-isoquinolin-2-yl]-2-oxo-ethyl]-3-chloro-4-methoxybenzonitrile] | –
50.1 | – | 20 to 40 | -8 | C[C@H]1[C@H]2CCC[C@@H]([C@H](O)C(F)(F)F)[C@@H]2CCN1C(=O)Cc1c(Cl)cnc(C(C)(C)O)c1Cl [Example 13, 1-[(1S,4aR,5R,8aS)-1-methyl-5-[(1S)-2,2,2-trifluoro-1-hydroxy-ethyl]-3,4,4a,5,6,7,8,8a-octahydro-1H-isoquinolin-2-yl]-2-[3,5-dichloro-2-(1-hydroxy-1-methyl-ethyl)-4-pyridyl]ethanone] | –
39.8 | – | 20 to 40 | 0 | COc1ccc(Cl)c(CC(=O)N2CC[C@H]3[C@H]([C@H](O)C(F)(F)F)CCC[C@@H]3[C@@H]2C)c1C#N [Example 2, 2-[2-[(1S,4aR,5R,8aS)-1-methyl-5-[(1S)-2,2,2-trifluoro-1-hydroxyethyl]-3,4,4a,5,6,7,8,8a-octahydro-1H-isoquinolin-2-yl]-2-oxoethyl]-3-chloro-6-methoxybenzonitrile] | –
15.8 | – | 20 to 40 | 9.6 | C[C@H]1[C@H]2CCC[C@@H]([C@H](O)C(F)(F)F)[C@@H]2CCN1C(=O)Cc1c(Cl)cnc(CO)c1Cl [Example 12, 1-[(1S,4aR,5R,8aS)-1-methyl-5-[(1 S)-2,2,2-trifluoro-1-hydroxy-ethyl]-3,4,4a,5,6,7,8,8a-octahydro-1H-isoquinolin-2-yl]-2-[3,5-dichloro-2-(hydroxymethyl)-4-pyridyl]ethanone] | –
25.1 | −8.4 | – | – | CC(O)c1ncc(Cl)c(CC(=O)N2CC[C@H]3[C@H]([C@H](O)C(F)(F)F)CCC[C@@H]3[C@@H]2C)c1Cl (single isomer, unassigned) [Example 9-B] | ++++ (A percentage of inhibition greater than about 20% and lower than or equal to about 40% is indicated by ++++.)
25.1 | – | 60 to 70 | 13.8 | COc1ncc(Cl)c(CC(=O)N2CC[C@H]3[C@H]([C@H](O)C(F)(F)F)CCC[C@@H]3[C@@H]2C)c1Cl [Example 3, 1-[(1S,4aR,5R,8aS)-1-methyl-5-[(1S)-2,2,2-trifluoro-1-hydroxy-ethyl]-3,4,4a,5,6,7,8,8a-octahydro-1H-isoquinolin-2-yl]-2-(3,5-dichloro-2-methoxypyridin-4-yl)ethanone] | –
200 | 10.9 | – | – | COc1ccc(C#N)c(CC(=O)N2CC[C@@H]3[C@H](CCC[C@H]3C(O)C(F)F)[C@@H]2C)c1Cl (single isomer, unassigned) [Example 6-B] | ++++ (A percentage of inhibition greater than about 20% and lower than or equal to about 40% is indicated by ++++.)
31.6 | – | 60 to 70 | 11.2 | COc1ccc(C#N)c(CC(=O)N2CC[C@H]3[C@H]([C@H](O)C(F)(F)F)CCC[C@@H]3[C@@H]2C)c1Cl [Example 1-A, 2-[2-[(1S,4aR,5R,8aS)-1-methyl-5-[(1S)-2,2,2-trifluoro-1-hydroxy-ethyl]-3,4,4a,5,6,7,8,8a-octahydro-1H-isoquinolin-2-yl]-2-oxo-ethyl]-3-chloro-4-methoxybenzonitrile] | –
12.6 | – | 20 to 40 | 8.5 | C[C@H]1[C@H]2CCC[C@@H]([C@H](O)C(F)(F)F)[C@@H]2CCN1C(=O)Nc1c(Cl)cccc1Cl [Example 10, (1S,4aR,5R,8aS)—N-(2,6-dichlorophenyl)-1-methyl-5-[(1S)-2,2,2-trifluoro-1-hydroxy-ethyl]-3,4,4a,5,6,7,8,8a-octahydro-1H-isoquinoline-2-carboxamide] | –
251 | 7.4 | 20 to 40 | – | COc1ccc(C#N)c(CC(=O)N2CC[C@@H]3[C@H](CCC[C@H]3C(C)(O)C(F)(F)F)[C@@H]2C)c1Cl (single isomer, unassigned) [Example 7-A] | –
31.6 | – | 40 to 60 | -8 | C[C@H]1[C@H]2CCC[C@@H]([C@H](O)C(F)(F)F)[C@@H]2CCN1C(=O)Cc1c(Cl)cc(F)c2[nH]nc(Cl)c12 [Example 14, 1-[(1 S,4aR,5R,8aS)-1-methyl-5-[(1 S)-2,2,2-trifluoro-1-hydroxy-ethyl]-3,4,4a,5,6,7,8,8a-octahydro-1H-isoquinolin-2-yl]-2-(3,5-dichloro-7-fluoro-1H-indazol-4-yl)ethanone] | –
50.1 | – | 20 to 40 | 8.6 | COc1ccc(C#N)c(CC(=O)N2CC[C@@H]3[C@H](CCC[C@H]3C(O)C(F)F)[C@@H]2C)c1Cl (single isomer, unassigned) [Example 6-A] | –
